These results are taken from patent publication US8945540B2, “Compositions for enhancing the antibacterial activity of myeloperoxidase and methods of use thereof” (Exoxemis, Inc., priority 2008, dated 2015).

For experiment [1], the system named is Staphylococcus aureus. As to the kind of experiment: Microbicidal activity of the myeloperoxidase system (p-MPO, glucose oxidase, glucose) with amino acids in the presence of blood, CFU plate counts; synergy determination from these CFU. The experiment is classed as cell-based. To be noted: for Average Viability CFU/ml 60 min / Log 10 (CFU + 1) Survivors 60 min / Log Reduction 60 min: amino acid 5 mM (none: 0 mM); for Average Viability CFU/ml 50 min / Log Reduction 50 min: single amino acid 2.5 mM, MPO 4.7 U/ml, GO 4.2 U/ml, in the presence of blood. In short, it runs like this:
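Staphylococcus aureus grown 24 hours in TSB at 35° C was washed in saline and added at a final 2-3×10^7 CFU per mL. The bacteria were mixed in 1 mL reactions with porcine myeloperoxidase, glucose oxidase, amino acids, 150 mM sodium chloride and 3% venous whole blood. Adding glucose to 150 mM started killing. After catalase addition, survivors were counted by serial dilution plating on TSA at 37° C for 24 hours.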

Experiment [2] deals with Staphylococcus aureus. As to the kind of experiment: Control: microbicidal activity of the amino acid or analogue alone (no glucose, MPO, glucose oxidase) in the presence of blood. It counts as cell-based. To be noted: for log reduction at 5000 µM: Staphylococcus aureus, 1 h, read-out: Log Reduction 60 min. The text has this:
As a control to determine the microbicidal activity of the amino acids alone, the foregoing procedure was followed without replication, except in the absence of glucose, MPO, and glucose oxidase.

Setting [3] is: MPO 100 μg/mL, AA 20 mM, 30 min.
Setting [4] is: MPO 100 μg/mL, AA 20 mM, 60 min.
Where [5] appears, read: Table 2, MPO 38 U/ml, GO 33.3 U/ml, blood.
[6] abbreviates: amino acid alone 5 mM, MPO 0, GO 0, no glucose, blood, without replication.
[7] abbreviates: Table 4, MPO 38 U/ml, GO 33.3 U/ml, blood.
The mark [8] stands for this setting: Table 3, MPO 38 U/ml, GO 33.3 U/ml, blood.

Like-named read-outs stand apart in the source and are kept apart here.

With `N[C@@H](CO)C(=O)O` [L-Serine], the “Log 10 (CFU + 1) Survivors” value is 5.0 in experiment [1] (MPO 25 μg/mL, AA 5 mM, 30 min); 0.0 in experiment [1] (MPO 25 μg/mL, AA 5 mM, 60 min); 6.8 in experiment [1] (MPO 25 μg/mL, AA […], 30 min); 1.8 in experiment [1] (MPO 25 μg/mL, AA […], 60 min); 5.0 in experiment [1] (MPO 100 μg/mL, AA 5 mM, 30 min); 0.0 in experiment [1] (MPO 100 μg/mL, AA 5 mM, 60 min). The “Log 10 (CFU + 1) Survivors” value in experiment [1] (setting [3]) is listed as 5.8; in experiment [1] (setting [4]), 0.0. In addition, the “Average Viability CFU/ml 60 min” value in experiment [1] (setting [5]) amounted to 0 CFU/ml; in experiment [2] (setting [6]), 24100000 CFU/ml. The “Log 10 (CFU + 1) Survivors 60 min” value in experiment [1] (setting [5]) came out at 0.0. In addition, the “Log Reduction 60 min” value in experiment [1] (setting [5]) was 7.4. The figures for the “Average Viability CFU/ml 50 min” value in experiment [1] (Table 10), in experiment [1] (Table 13) and in experiment [1] (Table 14) were 1175000 CFU/ml, 835000 CFU/ml and 940000 CFU/ml, respectively. The “Log Reduction 50 min” value in experiment [1] (Table 10) worked out at 1.3; in experiment [1] (Table 13), 1.5; in experiment [1] (Table 14) it was 1.5. For the same compound, the log reduction at 5000 µM in experiment [2] (setting [6]) worked out at 0.

Regarding `COC(=O)[C@H](C)N` [L-Ala methyl ester, L-Alanine methyl ester], the “Log 10 (CFU + 1) Survivors” value in experiment [1] (MPO 25 μg/mL, AA 5 mM, 30 min) worked out at 7.3; in experiment [1] (MPO 25 μg/mL, AA 5 mM, 60 min), 0.0; in experiment [1] (MPO 25 μg/mL, AA […], 30 min), 7.3; in experiment [1] (MPO 25 μg/mL, AA […], 60 min), 0.0; in experiment [1] (MPO 100 μg/mL, AA 5 mM, 30 min), 0.0; in experiment [1] (MPO 100 μg/mL, AA 5 mM, 60 min) it was 0.0. Besides, the “Log 10 (CFU + 1) Survivors” value in experiment [1] (setting [3]) and in experiment [1] (setting [4]) was 0.0 throughout. Further, the “Average Viability CFU/ml 60 min” value in experiment [1] (setting [7]) amounted to 0 CFU/ml; in experiment [2] (setting [6]) it was 24300000 CFU/ml. Also, the “Log Reduction 60 min” value in experiment [1] (setting [7]) turned out to be 7.4. For the same compound, in experiment [1] (Table 10), the “Average Viability CFU/ml 50 min” value stood at 7250000 CFU/ml. Further, in experiment [1] (Table 10), the “Log Reduction 50 min” value is on record as 0.5. The log reduction at 5000 µM in experiment [2] (setting [6]) was found to be 0.

For `N=C(N)NCCC[C@H](N)C(=O)O` [L-Arginine], in experiment [1] (setting [5]), the “Average Viability CFU/ml 60 min” value was found to be 5450000 CFU/ml, the “Log 10 (CFU + 1) Survivors 60 min” value is reported as 6.7 and the “Log Reduction 60 min” value is given as 0.6. Besides, the “enhancement of MPO microbicidal activity (in words)” value in experiment [1] (amino acid 5 mM, MPO 38 U/ml, GO 33.3 U/ml, blood) was “essentially inactive”. Also, the log reduction at 5000 µM in experiment [2] amounted to 0. Further, the “Average Viability CFU/ml 60 min” value in experiment [2] (setting [6]) amounted to 23600000 CFU/ml.

As for `N[C@@H](CC(=O)O)C(=O)O` [L-Aspartic acid], the “Log 10 (CFU + 1) Survivors” value in experiment [1] (MPO 25 μg/mL, AA 5 mM, 30 min) was 7.1; in experiment [1] (MPO 25 μg/mL, AA 5 mM, 60 min), 7.0; in experiment [1] (MPO 25 μg/mL, AA […], 30 min) it was 7.0; in experiment [1] (MPO 25 μg/mL, AA […], 60 min) it was 6.9; in experiment [1] (MPO 100 μg/mL, AA 5 mM, 30 min), 7.0; in experiment [1] (MPO 100 μg/mL, AA 5 mM, 60 min) it was 5.8. Further, the figures for the “Log 10 (CFU + 1) Survivors” value in experiment [1] (setting [3]) and in experiment [1] (setting [4]) were 7.0 and 6.8, respectively. The “Average Viability CFU/ml 60 min” value in experiment [1] (setting [8]) came out at 620000 CFU/ml; in experiment [2] (setting [6]), 18600000 CFU/ml. For the same compound, the “Log 10 (CFU + 1) Survivors 60 min” value in experiment [1] (setting [8]) is on record as 5.8. The “Log Reduction 60 min” value in experiment [1] (setting [8]) is recorded as 1.5. In addition, the “Average Viability CFU/ml 50 min” value in experiment [1] (Table 10) was 6900000 CFU/ml; in experiment [1] (Table 13) it was 4700000 CFU/ml. Further, the entries for the “Log Reduction 50 min” value in experiment [1] (Table 10) and in experiment [1] (Table 13) were 0.6 and 0.7, respectively. The log reduction at 5000 µM in experiment [2] (setting [6]) turned out to be 0.1.
